Results as given in patent US20230382889A1 (Volastra Therapeutics, Inc., priority 2022, published 2023).
Where two headings read alike, the source gives them in different places.

How the values were obtained:
HCC15 cells = assay: Cell viability of KIF18a-sensitive cell lines, HCC15 (Cell Titre-Glo, 7 days); assay type: cell-based; settings: read-out: HCC15 IC50
Description: (§1) Cell lines were seeded as follows 24 hours before compound treatment: HCC15 (Korean Cell Line Bank) 600 cell/well, 95 μL of RPMI-1640 media supplemented with 100 units/mL penicillin, 100 units/mL streptomycin and 10% FBS; NIH:OVCAR-3 (ATCC), 1000 cell/well, 95 μL of RPMI-1640 media supplemented with 100 units/mL penicillin, 100 units/mL streptomycin, 0.01 mg/mL bovine insulin, and 20% FBS; JIMT-1 (Addexbio) 1000 cell/well, 95 μL of DMEM media supplemented with 100 units/mL penicillin, 100 units/mL streptomycin, and 10% FBS.
(§2) Test compounds were added to cells in a 20× dilution scheme by adding 5 μL of serially diluted compound to the plate, and the treated cells were incubated for an additional 7 days in a 37° C., 5% CO2 incubator. DMSO was used as the negative control (0% effect), and wells omitting cells were used as the positive control (100% effect). The cells were incubated for seven days, and cell viability determined via the Promega Cell Titre-Glo® Assay kit. Luminescence units were converted to ATP concentrations via an ATP standard curve (10 point, 2-fold dilution from 5 uM). % Inhibition was calculated for each well as: ([max−min]−[test−min])/[max−min]. IC50 values were calculated from concentration vs. % Inhibition data via a four-parameter variable slope model.

NIH:OVCAR-3 cells = assay: Cell viability of KIF18a-sensitive cell lines, NIH:OVCAR-3 (Cell Titre-Glo, 7 days); assay type: cell-based; settings: Homo sapiens, OVCAR-3, 168 h, read-out: NIH:OVCAR3 IC50
Description: as §1, §2

hKIF18A (1-374) = hKIF18A (1-374) (Homo sapiens (Human), UniProt Q8NI77); assay: Inhibition of KIF18A microtubule-dependent ATPase activity (ADP-Glo); assay type: biochemical; settings: 4 nM hKIF18A (1-374)
In short: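 Reaction was started with pre-formed microtubules and ATP (0.2 mg/mL and 2.0 mM in the added mix) and run 60 min at 28 °C. ADP was read by ADP-Glo luminescence, and IC50 came from a four-parameter fit of % inhibition.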

JIMT-1 cells = assay: Cell viability of KIF18a-sensitive cell lines, JIMT-1 (Cell Titre-Glo, 7 days); assay type: cell-based; settings: Homo sapiens, read-out: JIMT-1 IC50
Description: as §1, §2

[1] = target: KIF18a-microtubule complex (Homo sapiens (Human), UniProt Q8NI77); assay: Binding kinetics to KIF18a-microtubule complex (global progress curve analysis); settings: for kon (on-rate from binding kinetics assay) / koff: KIF18A 0.25 nM, up to 24 hr; for koff: read-out: koff (off-rate from binding kinetics assay) (converted); for Ki: koff/kon, read-out: KI (determined from binding kinetic assay koff/kon)
Description: Compound binding kinetics parameters (kon and koff) were determined by the method of global progress curve analysis (GPCA). […] ADP product levels were determined by the Promega® ADP-Glo assay.

KIF18a-microtubule complex, sequence (Q8NI77 1-374, one chain of several): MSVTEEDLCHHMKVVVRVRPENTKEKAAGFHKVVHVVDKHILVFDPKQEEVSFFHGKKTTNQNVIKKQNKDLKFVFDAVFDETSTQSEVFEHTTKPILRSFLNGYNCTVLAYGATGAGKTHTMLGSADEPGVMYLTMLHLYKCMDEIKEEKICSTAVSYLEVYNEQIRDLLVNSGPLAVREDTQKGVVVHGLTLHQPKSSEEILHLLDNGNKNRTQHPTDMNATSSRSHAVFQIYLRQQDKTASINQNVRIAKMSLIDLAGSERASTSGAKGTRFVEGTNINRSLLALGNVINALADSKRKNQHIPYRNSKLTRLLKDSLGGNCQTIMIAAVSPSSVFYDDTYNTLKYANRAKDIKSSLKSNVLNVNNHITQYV
hKIF18A (1-374), sequence (Q8NI77 1-374): as the sequence (Q8NI77 1-374, one chain of several) above

| Compound | IC50 (HCC15 cells; 168 h, HCC15, 7 days) [nM] | IC50 (hKIF18A (1-374)) [nM] | IC50 (JIMT-1 cells; 168 h, JIMT-1, 7 days) [nM] | also measured |
| --- | --- | --- | --- | --- |
| O=S(=O)(CCO)Nc1ccc(-n2cc(-c3ccc(F)c(N4CCC(F)(F)CC4)n3)nn2)c(N2CCC3(CC2)CC3)c1 [Compound 79, N-(4-(4-(6-(4,4-difluoropiperidin-1-yl)-5-fluoropyridin-2-yl)-1H-1,2,3-triazol-1-yl)-3-(6-azaspiro[2.5]octan-6-yl)phenyl)-2-hydroxyethane-1-sulfonamide] | 5.4 | 15 | 7.8 | IC50 (NIH:OVCAR-3 cells; NIH:OVCAR3, 7 days): 8.3 nM |
| Cc1cc(-c2cn(-c3ccc(NS(=O)(=O)CCO)cc3N3CCC(C)CC3)nn2)nc(N2CCC(F)(F)CC2)n1 [Compound 89, N-(4-(4-(2-(4,4-difluoropiperidin-1-yl)-6-methylpyrimidin-4-yl)-1H-1,2,3-triazol-1-yl)-3-(4-methylpiperidin-1-yl)phenyl)-2-hydroxyethane-1-sulfonamide] | 34 | 21 | 48 | IC50 (NIH:OVCAR-3 cells; NIH:OVCAR3, 7 days): 51 nM |
| Cc1cc(-c2cn(-c3ccc(NS(=O)(=O)CCO)cc3N3CCC4(CC3)CC4)nn2)nc(N2CCC(F)(F)CC2)c1 [Compound 72, N-(4-(4-(6-(4,4-difluoropiperidin-1-yl)-4-methylpyridin-2-yl)-1H-1,2,3-triazol-1-yl)-3-(6-azaspiro[2.5]octan-6-yl)phenyl)-2-hydroxyethane-1-sulfonamide] | 16 |  | 24 | IC50 (NIH:OVCAR-3 cells; NIH:OVCAR3, 7 days): 25 nM |
| Cc1cc(-n2cc(-c3ccc(NS(=O)(=O)CCO)cc3N3CCC4(CC3)CC4)nn2)nc(N2CCC(F)(F)CC2)n1 [Compound 87, N-(4-(1-(2-(4,4-difluoropiperidin-1-yl)-6-methylpyrimidin-4-yl)-1H-1,2,3-triazol-4-yl)-3-(6-azaspiro[2.5]octan-6-yl)phenyl)-2-hydroxyethane-1-sulfonamide] | 43 | 27 | 90 | IC50 (NIH:OVCAR-3 cells; NIH:OVCAR3, 7 days): 49 nM |
| Cc1cc(NC(=O)c2ccc(NS(=O)(=O)CCO)cc2N2CCC3(CC2)CC3)nc(N2CCC(F)(F)CC2)n1 [AMG650, 2-(6-azaspiro[2.5]octan-6-yl)-N-[2-(4,4-difluoropiperidin-1-yl)-6-methylpyrimidin-4-yl]-4-(2-hydroxyethanesulfonamido)benzamide, reference compound] |  |  |  | IC50 (HCC15 cells; HCC15, 168 h): 66 nM; IC50 (NIH:OVCAR-3 cells): 100 nM; IC50 (JIMT-1 cells; JIMT-1, 168 h): 130 nM |
| Cc1cc(-c2cn(-c3ccc(NS(=O)(=O)CCO)cc3N3CCCCC3)nn2)nc(N2CC(F)(F)C2)c1 [Compound 70, N-(4-(4-(6-(3,3-difluoroazetidin-1-yl)-4-methylpyridin-2-yl)-1H-1,2,3-triazol-1-yl)-3-(piperidin-1-yl)phenyl)-2-hydroxyethane-1-sulfonamide] |  | 27 |  | kon (on-rate from binding kinetics assay) [1]: 2500 M⁻¹ s⁻¹; koff [1]: 3.61e-05 s⁻¹; Ki [1]: 15 nM; disc. t1/2 (dissociation half-life ln(2)/koff) [1]: 5.4 h |
| O=S(=O)(CCO)Nc1ccc(-n2cc(-c3cc(F)cc(N4CCC(F)(F)CC4)n3)nn2)c(N2CCC3(CC2)CC3)c1 [Compound 78, N-(4-(4-(6-(4,4-difluoropiperidin-1-yl)-4-fluoropyridin-2-yl)-1H-1,2,3-triazol-1-yl)-3-(6-azaspiro[2.5]octan-6-yl)phenyl)-2-hydroxyethane-1-sulfonamide] |  | 17 |  |  |
| CS(=O)(=O)Nc1ccc(-n2cc(-c3cccc(N4CCC(F)(F)CC4)n3)nn2)c(N2CCC(C(F)(F)F)CC2)c1 [Compound 20, N-(4-(4-(6-(4,4-difluoropiperidin-1-yl)pyridin-2-yl)-1H-1,2,3-triazol-1-yl)-3-(4-(trifluoromethyl)piperidin-1-yl)phenyl)methanesulfonamide] |  | 23 |  |  |
| Cc1cc(-c2cn(-c3ccc(NS(C)(=O)=O)cc3N3CCC4(CC3)CC4)nn2)nc(N2CCC(F)(F)CC2)c1 [Compound 14, N-(4-(4-(6-(4,4-difluoropiperidin-1-yl)-4-methylpyridin-2-yl)-1H-1,2,3-triazol-1-yl)-3-(6-azaspiro[2.5]octan-6-yl)phenyl)methanesulfonamide] |  | 39 |  |  |
| CC(C)(C)NS(=O)(=O)c1cccc(-c2cn(-c3ccc(NS(=O)(=O)C4(CO)CC4)cc3N3CCC4(CC3)CC4)nn2)c1 [Compound 122, N-(tert-butyl)-3-(1-(4-((1-(hydroxymethyl)cyclopropane)-1-sulfonamido)-2-(6-azaspiro[2.5]octan-6-yl)phenyl)-1H-1,2,3-triazol-4-yl)benzenesulfonamide] |  | 18 |  |  |

Continued by falling IC50 (hKIF18A (1-374)), values first:

| IC50 (HCC15 cells; 168 h, HCC15, 7 days) [nM] | IC50 (hKIF18A (1-374)) [nM] | Compound | IC50 (JIMT-1 cells; 168 h, JIMT-1, 7 days) [nM] | also measured |
| --- | --- | --- | --- | --- |
| 130 | 14 | CS(=O)(=O)Nc1ccc(-c2nnc(-c3cccc(N4CCOCC4)n3)[nH]2)c(N2CCC3(CC2)CC3)c1 [Compound 2, N-(4-(5-(6-morpholinopyridin-2-yl)-4H-1,2,4-triazol-3-yl)-3-(6-azaspiro[2.5]octan-6-yl)phenyl)methanesulfonamide] | 480 | kon (on-rate from binding kinetics assay) [1]: 3890 M⁻¹ s⁻¹; koff [1]: 3.61e-05 s⁻¹; Ki [1]: 8.9 nM; disc. t1/2 (dissociation half-life ln(2)/koff) [1]: 5.5 h |
|  | 12 | CCS(=O)(=O)Nc1ccc(-n2cc(-c3cc(C)cc(C(O)C4CCC4)n3)nn2)c(N2CCC3(CC2)CC3)c1 (stereo not shown) [Compound 133, N-(4-(4-(6-(cyclobutyl(hydroxy)methyl)-4-methylpyridin-2-yl)-1H-1,2,3-triazol-1-yl)-3-(6-azaspiro[2.5]octan-6-yl)phenyl)ethanesulfonamide] |  |  |
|  | 11 | CS(=O)(=O)Nc1ccc(-n2cc(-c3cccc(CN4CCC(F)(F)CC4)n3)nn2)c(N2CCC3(CC2)CC3)c1 [Compound 23, N-(4-(4-(6-((4,4-difluoropiperidin-1-yl)methyl)pyridin-2-yl)-1H-1,2,3-triazol-1-yl)-3-(6-azaspiro[2.5]octan-6-yl)phenyl)methanesulfonamide] |  |  |
|  | 9.6 | O=C(c1ccc(-c2cn(-c3ccc(NS(=O)(=O)CCO)cc3N3CCC4(CC3)CC4)nn2)o1)C1CCCC1 [Compound 92, N-(4-(4-(5-(cyclopentanecarbonyl)furan-2-yl)-1H-1,2,3-triazol-1-yl)-3-(6-azaspiro[2.5]octan-6-yl)phenyl)-2-hydroxyethane-1-sulfonamide] |  |  |
|  | 8.8 | N-(4-(4-(2-(cyclopentyloxy)-6-methylpyrimidin-4-yl)-1H-1,2,3-triazol-1-yl)-3-(6-azaspiro[2.5]octan-6-yl)phenyl)-2-hydroxyethane-1-sulfonamide [Compound 109] |  |  |
| 15 | 8 | CCS(=O)(=O)Nc1ccc(-n2cc(-c3cccc(N4CC(F)(F)C4)n3)nn2)c(N2CCC3(CC2)CC3)c1 [Compound 61, N-(4-(4-(6-(3,3-difluoroazetidin-1-yl)pyridin-2-yl)-1H-1,2,3-triazol-1-yl)-3-(6-azaspiro[2.5]octan-6-yl)phenyl)ethanesulfonamide] | 15 | IC50 (NIH:OVCAR-3 cells; NIH:OVCAR3, 7 days): 16 nM |
|  | 7.3 | Cc1ncc(-c2cn(-c3ccc(NS(=O)(=O)CCO)cc3N3CCC4(CC3)CC4)nn2)nc1N1CCC(F)(F)CC1 [Compound 124, N-(4-(4-(6-(4,4-difluoropiperidin-1-yl)-5-methylpyrazin-2-yl)-1H-1,2,3-triazol-1-yl)-3-(6-azaspiro[2.5]octan-6-yl)phenyl)-2-hydroxyethane-1-sulfonamide] |  |  |
|  | 6.6 | CS(=O)(=O)Nc1ccc(-c2nnc(-c3cccc(N4CCC(F)(F)CC4)n3)[nH]2)c(N2CCC3(CC2)CC3)c1 [Compound 5, N-(4-(5-(6-(4,4-difluoropiperidin-1-yl)pyridin-2-yl)-1H-1,2,4-triazol-3-yl)-3-(6-azaspiro[2.5]octan-6-yl)phenyl)methanesulfonamide] |  | kon (on-rate from binding kinetics assay) [1]: 16900 M⁻¹ s⁻¹; koff [1]: 2.53e-05 s⁻¹; Ki [1]: 1.5 nM; disc. t1/2 (dissociation half-life ln(2)/koff) [1]: 7.6 h |
|  | 5.5 | CC1CCN(c2cc(NS(=O)(=O)CCO)ccc2-n2cc(-c3cncc(N4CCC(F)(F)CC4)n3)nn2)CC1 [Compound 143, N-(4-(4-(6-(4,4-difluoropiperidin-1-yl)pyrazin-2-yl)-1H-1,2,3-triazol-1-yl)-3-(4-methylpiperidin-1-yl)phenyl)-2-hydroxyethane-1-sulfonamide] |  |  |
